According to patent US20050197634A1, “Methods for coating and impregnating medical devices with antiseptic compositions” (Board of Regents, The University of Texas System, priority 2004, published 2005):

Key:
Pseudomonas aeruginosa = experiment: Zones of inhibition of impregnated device segments, modified Kirby-Bauer technique; assay type: cell-based; details: gentian violet after impregnating surfaces of various polymers incl. polyvinylchloride
Description: (§1) In Vitro antimicrobial activity. The antimicrobial activity of impregnated catheters was evaluated in duplicate by a modified Kirby-Bauer technique. BBL Mueller Hinton II agar plates (obtained from Fisher Scientific) were inoculated with 0.5 McFarland of the appropriate microorganism (hospital isolates from the MD Anderson Cancer Center). Then 10 mm segments of impregnated devices were embedded in the inoculated plates and placed in an incubator at about 37° C. for at least 18 hours. Zones of inhibition were measured perpendicular to the long axis of the device.
(§2) Anti-microbial activity of GND-ETT and GND-UC segments was assessed by modified Kirby-Bauer method. Segments were embedded in Mueller Hinton agar plates inoculated with one of the following organisms: Candida albicans (CA), vancomycin resistant enterococci (VRE), E. coli (EC), Candida parapsilosis(CP), methicillin resistant S. aureus (MRSA) or Pseudomonas aeruginosa (PS). Plates were incubated at 37° C. Zones of inhibition (ZOI) created by impregnated segments were measured in mm.
(§3) GND-ETT and GND-UC were immersed in sterile pooled bronchoalveolar lavage (BAL) or urine, respectively, and incubated at 37° C. BAL and urine were changed weekly and ZOI were determined in duplicate at weekly intervals.

[1] = system: Methicillin resistant Staph. aureus (MRSA2066); experiment: as above; assay type: cell-based; details: in words
Description: as §1, §2, §3

[2] = system: Candida parapsilosis (C. Parap.1-100-0022); experiment: as above; assay type: cell-based; details: in words
Description: as §1, §2, §3

Alcaligenes faecalis = experiment: Zones of inhibition of impregnated PVC tubes; assay type: cell-based; details: in words
Description: as §1

[3] = system: various nosocomial pathogens; experiment: In vitro zones of inhibition of coated or impregnated catheter devices and sutures; assay type: cell-based; details: coating or impregnating catheter devices and sutures
Description: as §1

S. epidermis = details: in vitro study, gentian violet alone; cited from earlier work
[4] = sutures, compared with Genlenol

For [H]/N=C(\N/C(=N/[H])NCCCCCCNC(=N)NC(=N)Nc1ccc(Cl)cc1)Nc1ccc(Cl)cc1 [chlorhexidine], the “activity against Pseudomonas aeruginosa, agent on its own” value (Pseudomonas aeruginosa) was “not highly active”.
In the case of CN(C)c1ccc(C(=C2C=CC(=[N+](C)C)C=C2)c2ccc(N(C)C)cc2)cc1.Cc1cc([O-])cc(C)c1Cl [Genlenol], the “zone against MRSA” value ([1]; silicone catheter) was “increased the zone against MRSA considerably”, the “zones of inhibition against C. parapsilosis” value ([2]; PVC tubes and PVC catheters) was “Improvements” and the “zone against C. parapsilosis” value ([2]; silicone catheter) was “large zone”. The “zones of inhibition against Alcaligenes faecalis” value (Alcaligenes faecalis) was “to a large extent” and the “in vitro zones of inhibition against various nosocomial pathogens” value (from here on “in vitro zones of inhibition”) [3] was “large in vitro zones of inhibition”.
For CC(C)(C)CC(C)(C)c1ccc([O-])c(Cc2ccc(Cl)cc2Cl)c1.CN(C)c1ccc(C(=C2C=CC(=[N+](C)C)C=C2)c2ccc(N(C)C)cc2)cc1 [Genfoctol], the “zones against MRSA” value [1, 4] was “much larger zones”, the “zones against C. parapsilosis” value [2, 4] was “much larger zones” and the “in vitro zones of inhibition” value [3] was “large in vitro zones of inhibition”.
With Cc1cc(O)cc(C)c1Cl [PCMX, p-chloro-m-xylenol; 4-chloro-3,5-dimethylxylenol, reference compound] the “in vitro zones of inhibition” value [3] was “Neither the neutral form of PCMX nor its sodium salt could produce in vitro zones of inhibition”.
In the case of CN(C)c1ccc(C(=C2C=CC(=[N+](C)C)C=C2)c2ccc(N(C)C)cc2)cc1 [GV, Gentian violet], the “activity against Pseudomonas aeruginosa, agent on its own” value (Pseudomonas aeruginosa) is listed as “no activity” and the “colonization of S. epidermis on impregnated CSF silicone shunt surfaces” value (S. epidermis) is listed as “prevent the colonization”.
With CN(C)c1ccc(C(=C2C=CC(=[N+](C)C)C=C2)c2ccc(N(C)C)cc2)cc1.[O-]c1cc(Cl)ccc1Oc1ccc(Cl)cc1Cl [Genlosan] the “in vitro zones of inhibition” value [3] was “large in vitro zones of inhibition”.
